Test: Drug delivery effect of the RED iontophoresis device through excised hairless mouse back skin (HPLC/LC-MS of stratum corneum and dermis)
Assay type: in vitro ADME
Details: after 3 hours, FIG. 10
Description: FIG. 10 is a graph illustrating drug delivery effects of the iontophoresis device according to an embodiment. In order to confirm the drug delivery effects, the RED battery unit was prepared in the same manner as in preparation of the RED battery unit prepared for the measurement in FIG. 6, except that the number of chamber layers was 15, and a size of the chamber was 1 cm×0.8 cm. Also, 3M clectrically conductible adhesive tape (ECAT), which is conductive fabric, was used as an intermediate unit. The first material containing unit was prepared as follows. 2.5 wt % of 2-phospho I-ascorbic acid trisodium (VCP) (available from Sigma Aldrich, US) and 3 w/v % of Carbopol 940 were dissolved in 1×PBS having pH of 7.4. By titrating with 1 M HCl and 1 M NaOH, a pH of the first material containing unit including vitamin C (VCP) was adjusted to 7. This is a stable pH at which VCP exists in the ionized form. As a thickening agent used in preparation of a dosage form, Carbopol was prepared as a sol while controlling a pH using pH indicator paper (available from GE healthcare, UK). The resultant was sufficiently stirred by using a glass rod so that a material in the first material containing unit was homogenous after each titration process. […]

vitamin C (VCP) delivered to the skin, i.e., dermis (experimental group (RED single): activated iontophoresis device, 15 chamber layers, 2.5 wt % VCP in Carbopol sol pH 7, excised haireless mouse (Sk-hr 1) back skin): about 40%
SMILES: O=C1O[C@H]([C@@H](O)CO)C(O)=C1OP(=O)(O)O.[Na+].[Na+].[Na+] [VCP, 2-phospho I-ascorbic acid trisodium]
drug remaining amount in the stratum corneum (control group (Ctrl): device with the same drug concentration, not activated by water, excised haireless mouse back skin): more drug remaining amount was found in the stratum corneum
